Measured values from ChEMBL document CHEMBL4007386, “Design, synthesis of allosteric peptide activator for human SIRT1 and its biological evaluation in cellular model of Alzheimer's disease” (Eur J Med Chem, 2017).
Calls of active or inactive are those of the source. The calls are words filed in the database; no cut-off is given here. Where a SMILES comes first, the peptide text is derived from it.

Key:
[1] = molecular target: T1, NAD-dependent protein deacetylase sirtuin-1 (Homo sapiens) (UniProt Q96EB6); assay: Activation of SIRT1 in Alzheimer's disease patient serum assessed as increase in deacetylation of SIRT1 substrate peptide at 5 mM preincubated for 1 hr followed by substrate addition measured after 1 hr by fluorescence spectroscopic method
T1 sequence (whole entry): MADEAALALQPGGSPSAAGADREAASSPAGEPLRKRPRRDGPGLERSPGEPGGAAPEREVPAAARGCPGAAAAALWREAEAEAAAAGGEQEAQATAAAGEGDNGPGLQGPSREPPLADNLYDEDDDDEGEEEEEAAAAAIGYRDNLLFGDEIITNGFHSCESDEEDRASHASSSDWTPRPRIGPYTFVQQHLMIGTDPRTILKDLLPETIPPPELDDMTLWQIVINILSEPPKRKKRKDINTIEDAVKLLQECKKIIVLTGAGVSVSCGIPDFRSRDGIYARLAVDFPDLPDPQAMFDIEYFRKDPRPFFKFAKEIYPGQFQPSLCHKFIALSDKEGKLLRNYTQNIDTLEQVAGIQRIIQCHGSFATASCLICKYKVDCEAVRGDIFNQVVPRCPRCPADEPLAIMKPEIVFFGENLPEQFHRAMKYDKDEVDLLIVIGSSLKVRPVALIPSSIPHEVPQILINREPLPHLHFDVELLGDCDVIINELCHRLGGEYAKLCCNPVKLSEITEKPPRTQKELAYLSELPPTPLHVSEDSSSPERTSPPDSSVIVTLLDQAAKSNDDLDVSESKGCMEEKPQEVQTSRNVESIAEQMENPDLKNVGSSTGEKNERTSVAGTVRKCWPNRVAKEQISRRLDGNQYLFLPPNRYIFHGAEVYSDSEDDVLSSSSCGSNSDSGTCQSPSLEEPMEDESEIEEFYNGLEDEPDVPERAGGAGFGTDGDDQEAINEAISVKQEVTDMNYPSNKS

[2] = molecular target: T1, NAD-dependent protein deacetylase sirtuin-1 (Homo sapiens); assay: Activation of SIRT1 (unknown origin) expressed in bacterial expression system assessed as increase in enzyme activity at 100 uM using Fluorophore labeled-Arg-His-Lys-Lys (Ac) as substrate incubated for 30 mins in presence of NAD+ by fluorimetric method relative to control
[3] = molecular target: T1, NAD-dependent protein deacetylase sirtuin-1 (Homo sapiens); assay: Activation of SIRT1 (unknown origin) expressed in bacterial expression system assessed as increase in enzyme activity at 105 uM using Fluorophore labeled-Arg-His-Lys-Lys (Ac) as substrate incubated for 30 mins in presence of NAD+ by fluorimetric method relative to control
[4] = molecular target: T1, NAD-dependent protein deacetylase sirtuin-1 (Homo sapiens); assay: Activation of SIRT1 (unknown origin) expressed in bacterial expression system assessed as increase in enzyme activity at >145 uM using Fluorophore labeled-Arg-His-Lys-Lys (Ac) as substrate incubated for 30 mins in presence of NAD+ by fluorimetric method
[5] = molecular target: T1, NAD-dependent protein deacetylase sirtuin-1 (Homo sapiens); assay: Activation of SIRT1 (unknown origin) expressed in bacterial expression system assessed as increase in enzyme activity using Fluorophore labeled-Arg-His-Lys-Lys (Ac) as substrate incubated for 30 mins in presence of NAD+ by fluorimetric method
[6] = molecular target: T1, NAD-dependent protein deacetylase sirtuin-1 (Homo sapiens); assay: Activation of SIRT1 in Alzheimer's disease patient serum assessed as increase in deacetylation of SIRT1 substrate peptide at 1.5 to 3 mM preincubated for 1 hr followed by substrate addition measured after 1 hr by fluorescence spectroscopic method relative to control
[7] = molecular target: T2, NAD-dependent protein deacetylase sirtuin-2 (Homo sapiens) (UniProt Q8IXJ6); assay: Activity at SIRT2 in Alzheimer's disease patient serum assessed as effect on deacetylation of SIRT2 substrate peptide at 1.5 to 3 mM preincubated for 1 hr followed by substrate addition measured after 1 hr by fluorescence spectroscopic method
T2 sequence (whole entry): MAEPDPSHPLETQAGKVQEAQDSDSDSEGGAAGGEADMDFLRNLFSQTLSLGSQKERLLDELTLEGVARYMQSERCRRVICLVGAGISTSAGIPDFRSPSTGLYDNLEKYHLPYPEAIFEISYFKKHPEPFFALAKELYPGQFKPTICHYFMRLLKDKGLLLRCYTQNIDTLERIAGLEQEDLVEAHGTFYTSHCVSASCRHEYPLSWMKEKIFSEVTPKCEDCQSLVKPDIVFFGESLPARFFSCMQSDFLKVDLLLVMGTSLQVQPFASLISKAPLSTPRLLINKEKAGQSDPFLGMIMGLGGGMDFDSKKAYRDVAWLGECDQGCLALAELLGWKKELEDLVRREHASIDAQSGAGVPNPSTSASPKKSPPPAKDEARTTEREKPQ

[8] = molecular target: T1, NAD-dependent protein deacetylase sirtuin-1 (Homo sapiens); assay: Allosteric activation of SIRT1 in human IMR32 cells assessed as decrease in acetylation level of K382 residue of p53 after 48 hrs by Western blot method; assay type: cell-based
[9] = molecular target: T1, NAD-dependent protein deacetylase sirtuin-1 (Homo sapiens); assay: Allosteric activation of SIRT1 in human IMR32 cells assessed as decrease in acetylation level of K382 residue of p53 at 160 uM after 48 hrs in presence of SIRT1 inhibitor nicotinamide by Western blot method; assay type: cell-based
[10] = molecular target: T1, NAD-dependent protein deacetylase sirtuin-1 (Homo sapiens); assay: Activation of SIRT1 in human IMR32 cells assessed as protection against amyloid beta (25 to 35)-induced toxicity by measuring cell viability at 10 uM after 48 hrs by MTT assay (reference value: 56.3 +/- 1.2%); assay type: cell-based
[11] = molecular target: T1, NAD-dependent protein deacetylase sirtuin-1 (Homo sapiens); assay: Activation of SIRT1 in human IMR32 cells assessed as protection against amyloid beta (25 to 35)-induced toxicity by measuring cell viability at 20 uM after 48 hrs by MTT assay (reference value: 56.3 +/- 1.2%); assay type: cell-based
[12] = molecular target: T1, NAD-dependent protein deacetylase sirtuin-1 (Homo sapiens); assay: Activation of SIRT1 in human IMR32 cells assessed as protection against amyloid beta (25 to 35)-induced toxicity by measuring cell viability at 40 uM after 48 hrs by MTT assay (reference value: 56.3 +/- 1.2%); assay type: cell-based
[13] = molecular target: T1, NAD-dependent protein deacetylase sirtuin-1 (Homo sapiens); assay: Activation of SIRT1 in human IMR32 cells assessed as protection against amyloid beta (25 to 35)-induced toxicity by measuring cell viability at 80 uM after 48 hrs by MTT assay (reference value: 56.3 +/- 1.2%); assay type: cell-based

NC(=O)c1cccnc1
Activity [1]: inactive

CC(C)C[C@H](NC(=O)[C@@H](N)CC(N)=O)C(=O)N[C@@H](CCCNC(=N)N)C(=O)O (H-Asn-Leu-Arg-OH)
Activity [2]: 6%

N=C(N)NCCC[C@H](NC(=O)[C@H](Cc1c[nH]c2ccccc12)NC(=O)[C@@H](N)CC(N)=O)C(=O)O (H-Asn-Trp-Arg-OH)
Activity [2]: 24%

N=C(N)NCCC[C@H](NC(=O)[C@H](Cc1ccc(O)cc1)NC(=O)[C@@H](N)CC(N)=O)C(=O)O (H-Asn-Tyr-Arg-OH)
Activity [2]: 4%

N=C(N)NCCC[C@H](NC(=O)[C@H](Cc1c[nH]c2ccccc12)NC(=O)[C@@H](N)CS)C(=O)O (H-Cys-Trp-Arg-OH)
fold change (FC) [3]: 2 | Activity [2]: 97% | Activity [4]: Active | EC1.5 [5]: 55 µM | Activity [6]: 21.2% | Activity [7]: inactive | Activity [8]: Dose-dependent effect | Activity [9]: inactive | Activity [10]: 57.1% | Activity [11]: 68% | Activity [12]: 79.8% | Activity [13]: 83.4%

N=C(N)NCCC[C@H](NC(=O)[C@H](Cc1ccc(O)cc1)NC(=O)[C@@H](N)CCC(N)=O)C(=O)O (H-Gln-Tyr-Arg-OH)
Activity [2]: 12%

N[C@@H](Cc1cnc[nH]1)C(=O)N[C@@H](CCC(=O)O)C(=O)N[C@@H](Cc1ccc(O)cc1)C(=O)O (H-His-Glu-Tyr-OH)
Activity [2]: 15%

N=C(N)NCCC[C@H](NC(=O)[C@@H]1CCCN1C(=O)[C@@H](N)Cc1cnc[nH]1)C(=O)O (H-His-Pro-Arg-OH)
Activity [2]: -10%

N=C(N)NCCC[C@H](NC(=O)[C@H](Cc1ccc(O)cc1)NC(=O)[C@@H](N)Cc1cnc[nH]1)C(=O)O (H-His-Tyr-Arg-OH)
Activity [2]: 19%

CC(C)[C@H](NC(=O)[C@@H](N)Cc1cnc[nH]1)C(=O)N[C@@H](CCCNC(=N)N)C(=O)O (H-His-Val-Arg-OH)
Activity [2]: 5%

N=C(N)NCCC[C@H](NC(=O)[C@H](Cc1c[nH]c2ccccc12)NC(=O)[C@@H](N)Cc1ccccc1)C(=O)O (H-Phe-Trp-Arg-OH)
Activity [2]: 28%
